Measurements taken from patent US7875650B2, “Compounds and methods to increase anti-P-glycoprotein activity of baicalein by alkylation on the A ring” (Yale University, priority 2004, dated 2011).
pEC50: −log10 of the molar value. Where two headings read alike, the source gives them in different places.

How the values were obtained:
[1] = molecular target: T1, P-gp 170 (Homo sapiens, UniProt P08183); test: in vitro; conditions: for Amax (maximum accumulation of intracellular vinblastine), fold higher than control: human, 60 min
Excerpt: (§1) The KB/MDR cells, which overexpress human P-gp 170 protein, were used to evaluate the anti-P-gp 170 activity of drugs. […] The concentration of compound required to achieve 50% maximum accumulation of vinblastine is presented as the EC50 value. The maximum accumulation of intracellular vinblastine caused by the compounds in one hour is expressed as Amax (picomoles/10^6 cells). The cell growth inhibitory activity of compounds is presented as the concentration required to inhibit 50% growth of KB or KB/MDR cell lines (IC50) following three days of compound treatment.
(§2) Vinblastine uptake by the KB/MDR cells. KB/MDR cells,^37 which overexpress human P-gp 170 protein, were seeded into 24-well tissue culture plates in RPMI 1640 medium plus 10% fetal bovine serum for 24 hours without the selecting agent doxorubicin (37 nM). The cells were then treated with [^3H]vinblastine plus synthetic flavones in HBSS for 60 minutes. The cells were washed twice with ice-cold PBS, harvested with 1 N NaOH, neutralized with 1 N HCl. The cell aliquots were transferred to scintillation vials and counted with a […] (Beckman, model LS 5000) after adding 10 mL scintillation fluids (SafeScint, American Bioanalytical Co., Natick, Mass.). Data presented are the mean of three independent experiments.

[2] = molecular target: P-gp 170 (human P-glycoprotein) (Homo sapiens, UniProt P08183); test: in vitro; conditions: human
Excerpt: as §1, §2

[3] = molecular target: T1, P-gp 170
[4] = molecular target: P-gp (Homo sapiens, UniProt P08183); conditions: their (Boumendjel et al.) experiments; cited from earlier work
[5] = molecular target: T1, P-gp 170; test: Inhibitory activity of Scute and its components against P-gp 170 efflux action (previous study)
[6] = tested on: KB cells; test: Growth inhibitory assay, KB cells; assay type: cell-based, human; conditions: 3 days
Protocol: (§3) The cells were then fixed and stained with methylene blue in 50% MeOH, washed thoroughly with tap water, and dissolved with 0.5 mL 0.5% sarcosyl.^38 The amount of cellular protein, which is proportional to the cell number, is estimated by the absorption (OD595nm). The growth inhibitory assay, which is presented as an IC50 value, represents the concentration of compound required to inhibit 50% of cell growth. The cell doubling time of KB and KB/MDR cells is about 20 to 24 hours. The data presented are the mean of three independent experiments.

[7] = tested on: KB/MDR cells; test: Growth inhibitory assay, KB/MDR cells; assay type: cell-based, human; conditions: 3 days
Protocol: as §3

T1 sequence (P08183 whole entry): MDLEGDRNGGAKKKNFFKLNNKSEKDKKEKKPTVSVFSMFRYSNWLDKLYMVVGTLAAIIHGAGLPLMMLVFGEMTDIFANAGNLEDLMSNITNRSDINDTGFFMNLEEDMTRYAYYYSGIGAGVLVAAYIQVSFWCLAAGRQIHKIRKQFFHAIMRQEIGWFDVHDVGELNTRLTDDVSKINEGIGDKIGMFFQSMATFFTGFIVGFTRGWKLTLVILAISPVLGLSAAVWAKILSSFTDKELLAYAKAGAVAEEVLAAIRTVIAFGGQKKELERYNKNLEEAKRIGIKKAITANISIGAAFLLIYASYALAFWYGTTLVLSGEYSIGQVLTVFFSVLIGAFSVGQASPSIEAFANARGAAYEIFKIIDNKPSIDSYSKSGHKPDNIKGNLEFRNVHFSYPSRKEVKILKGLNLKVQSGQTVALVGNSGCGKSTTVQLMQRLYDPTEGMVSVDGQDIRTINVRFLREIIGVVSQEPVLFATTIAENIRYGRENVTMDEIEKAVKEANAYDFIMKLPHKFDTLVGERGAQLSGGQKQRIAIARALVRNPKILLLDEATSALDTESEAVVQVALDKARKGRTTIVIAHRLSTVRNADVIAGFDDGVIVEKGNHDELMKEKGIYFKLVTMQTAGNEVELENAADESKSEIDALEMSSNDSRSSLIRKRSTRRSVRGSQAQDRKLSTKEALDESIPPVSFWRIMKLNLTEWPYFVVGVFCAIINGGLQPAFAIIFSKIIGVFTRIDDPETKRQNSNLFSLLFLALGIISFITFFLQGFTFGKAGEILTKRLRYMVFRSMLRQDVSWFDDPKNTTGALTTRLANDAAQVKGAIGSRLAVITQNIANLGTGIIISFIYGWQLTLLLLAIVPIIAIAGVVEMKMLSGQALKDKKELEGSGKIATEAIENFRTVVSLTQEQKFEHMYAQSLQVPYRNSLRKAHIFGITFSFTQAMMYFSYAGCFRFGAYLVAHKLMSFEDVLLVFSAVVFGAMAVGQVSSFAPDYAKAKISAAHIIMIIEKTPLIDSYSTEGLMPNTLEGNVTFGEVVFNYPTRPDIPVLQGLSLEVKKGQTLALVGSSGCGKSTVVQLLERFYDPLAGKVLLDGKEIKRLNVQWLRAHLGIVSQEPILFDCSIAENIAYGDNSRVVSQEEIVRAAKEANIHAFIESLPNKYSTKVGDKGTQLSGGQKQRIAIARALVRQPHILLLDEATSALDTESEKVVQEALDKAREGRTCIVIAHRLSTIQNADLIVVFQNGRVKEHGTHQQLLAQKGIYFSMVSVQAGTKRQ
Chain of P-gp 170 (human P-glycoprotein) (P08183 whole entry): as above
Chain of P-gp (P08183 whole entry): as above

O=c1cc(-c2ccccc2)oc2cc(O)c(OCc3ccccc3)c(O)c12 [Compound 15, 6-(Benzoxy)-5,7-dihydroxyflavone]
anti-P-gp 170 efflux activity (EC50, Amax) in words [1]: low EC50 but higher Amax in comparison with baicalein

CC(=O)Oc1c(OC(C)=O)c(O)c2c(=O)cc(-c3ccccc3)oc2c1Br [Compound 24, 6,7-Diacetoxy-8-bromo-5-hydroxyflavone]
anti-P-gp 170 efflux activity (EC50, Amax) in words [1]: less favorable activity against P-gp 170 activity than compound 3 | melting point: 244 to 246 °C

CCCOc1c(O)cc2oc(-c3ccccc3)cc(=O)c2c1O [Compound 17, 5,7-Dihydroxy-6-propoxyflavone]
pEC50 [1]: 5.70 | Amax (maximum accumulation of intracellular vinblastine), fold higher than control [1]: 9 fold | melting point: 162 to 163 °C

CCOc1cc2oc(-c3ccccc3)cc(=O)c2c(OC)c1OCC
melting point: 126 to 128 °C

CC(=O)Oc1cc2oc(-c3ccccc3)cc(=O)c2c(OCc2ccccc2)c1OC(C)=O [Compound 9, 6,7-Diacetoxy-5-(benzoxy)flavone]
anti-P-gp 170 efflux activity (EC50, Amax) in words [1]: low EC50 but higher Amax in comparison with baicalein | melting point: 175 to 177 °C

CCCOc1cc2oc(-c3ccccc3)cc(=O)c2c(O)c1OCCC [Compound 18, 5-Hydroxy-6,7-dipropoxyflavone]
Amax (maximum accumulation of intracellular vinblastine), fold higher than control [1]: 10 fold | EC50 at 60 min [2]: 1400 nM

COc1cc2oc(-c3ccccc3)cc(=O)c2c(OC)c1OC(C)=O [Compound 5, 6-Acetoxy-5,7-dimethoxyflavone]
melting point: 208 to 210 °C

COc1cc2oc(-c3ccccc3)cc(=O)c2c(O)c1OC [Compound 8, 5-Hydroxy-6,7-dimethoxyflavone]
pEC50 [1]: 5.26

COc1c(O)cc(O)c2c(=O)cc(-c3ccccc3)oc12 [wogonin, 5,7-dihydroxy-8-methoxyflavone]
anti-P-gp 170 activity in words [3]: lack inhibitory activity

O=c1cc(-c2ccccc2)oc2cc(OCc3ccccc3)cc(O)c12 [7-benzoxy-5-hydroxyflavone]
Amax / drug accumulation as compared to cyclosporin A [4]: 25%

CCCCOc1cc2oc(-c3ccccc3)cc(=O)c2c(OC)c1OCCCC [Compound 46, 6,7-Dibutoxy-5-methoxyflavone]
melting point: 103 to 105 °C

COc1c(O[C@@H]2O[C@H](C(=O)O)[C@@H](O)[C@H](O)[C@H]2O)cc(O)c2c(=O)cc(-c3ccccc3)oc12 [wogonoside]
anti-P-gp 170 activity in words [5]: lack inhibitory activity

COc1c2c(cc3oc(-c4ccccc4)cc(=O)c13)OC(c1ccccc1)(c1ccccc1)O2 [Compound 13, 6,7-(Diphenylmethylenedioxy)-5-methoxyflavone]
anti-P-gp 170 efflux activity (EC50, Amax) in words [1]: decreased | cytotoxicity in words [6]: decreased | cytotoxicity in words [7]: decreased

CCOc1c(O)cc2oc(-c3ccccc3)cc(=O)c2c1O [Compound 32, 6-Ethoxy-5,7-dihydroxyflavone]
pEC50 [1]: 5.64

CCOc1cc2oc(-c3ccccc3)cc(=O)c2c(O)c1OCC [Compound 33, 6,7-Diethoxy-5-hydroxyflavone]
pEC50 [1]: 5.74

CCCOc1c(OC)cc2oc(-c3ccccc3)cc(=O)c2c1O [Compound 21, 5-Hydroxy-7-methoxy-6-propoxyflavone]
pEC50 [1]: 5.92 | Amax (maximum accumulation of intracellular vinblastine), fold higher than control [1]: 9 fold

CCCOc1cc2oc(-c3ccccc3)cc(=O)c2c(OC)c1OCCC [Compound 23, 5-Methoxy-6,7-dipropoxyflavone]
pEC50 [1]: 6.05

COc1cc2oc(-c3ccccc3)cc(=O)c2c(OC)c1OC [Compound 6, 5,6,7-Trimethoxyflavone]
pEC50 [1]: 5.34

O=c1cc(-c2ccccc2)oc2c(Br)c(O)c(O)c(O)c12 [Compound 25, 8-Bromo-5,6,7-trihydroxyflavone]
anti-P-gp 170 efflux activity (EC50, Amax) in words [1]: Amax did not change | EC50 at 60 min [2]: 15000 nM

CC(=O)Oc1c(O)cc2oc(-c3ccccc3)cc(=O)c2c1O [Compound 2, 6-Acetoxy-5,7-dihydroxyflavone]
EC50 relative to the parental compound (baicalein) [1]: one-fourth | melting point: 205 to 207 °C

CC(=O)Oc1cc2oc(-c3ccccc3)cc(=O)c2c(O)c1OCc1ccccc1 [Compound 10, 7-Acetoxy-6-(benzoxy)-5-hydroxyflavone]
anti-P-gp 170 efflux activity (EC50, Amax) in words [1]: low EC50 but higher Amax in comparison with baicalein

CC(=O)Oc1cc2oc(-c3ccccc3)cc(=O)c2c(O)c1OC(C)=O [Compound 3, 6,7-Diacetoxy-5-hydroxyflavone]
EC50 relative to the parental compound (baicalein) ([1]; KB/MDR cells): one-fourth

CC(=O)Oc1c(OCc2ccccc2)cc2oc(-c3ccccc3)cc(=O)c2c1OC(C)=O [Compound 14, 5,6Diacetoxy-7-(benzoxy)flavone]
anti-P-gp 170 efflux activity (EC50, Amax) in words [1]: low EC50 but higher Amax in comparison with baicalein | melting point: 174 to 175 °C

CCCCOc1cc2oc(-c3ccccc3)cc(=O)c2c(O)c1OCCCC [Compound 45, 6,7-Dibutoxy-5-hydroxyflavone]
melting point: 116 to 117 °C

O=c1cc(-c2ccccc2)oc2cc(O)c(O)c(O)c12 [Compound 1, baicalein]
anti-P-gp 170 activity in words [3]: active component

O=c1cc(-c2ccccc2)oc2cc(OCc3ccccc3)c(OCc3ccccc3)c(O)c12 [Compound 16, 6,7-(Dibenzoxy)-5-hydroxy-flavone]
cytotoxicity in words [6]: decreased and lost | cytotoxicity in words [7]: decreased and lost

CCOc1c(OC)cc2oc(-c3ccccc3)cc(=O)c2c1O [Compound 38, 6-Ethoxy-5-hydroxy-7-methoxyflavone]
melting point: 133 to 134 °C
